Experimental data taken from PubChem BioAssay AID1259407 (Chemical Carcinogenesis Research Information System (CCRIS), 2018).
Active and inactive are the calls of the source. The rule behind the calls is not given here.

Test system: CCRIS mutagenicity, Ames/micronucleus/aberration tests
Test: CCRIS mutagenicity studies

`c1ccccc1` was tested, and the mutagenic call (End Point: IN VITRO CHROMOSOMAL ABERRATIONS, Test System: BOVINE PERIPHERAL LYMPHOCYTES, Metabolic Activation: NONE) was “active; positive (structural changes)”, the mutagenic call (End Point: IN VITRO CHROMOSOMAL ABERRATIONS, Test System: BOVINE PERIPHERAL LYMPHOCYTES, Metabolic Activation: NONE, Method: FISH) was “active; positive (structural changes)” and the mutagenic call (End Point: IN VITRO CHROMOSOMAL ABERRATIONS, Test System: BOVINE PERIPHERAL LYMPHOCYTES, Metabolic Activation: RAT, S-9, AROCLOR 1254) was “active; positive (structural changes)”. The mutagenic call (End Point: IN VITRO CHROMOSOMAL ABERRATIONS, Test System: CHO CELLS, Metabolic Activation: NONE) was “inactive; negative”, the mutagenic call (End Point: IN VITRO CHROMOSOMAL ABERRATIONS, Test System: CHO CELLS, Metabolic Activation: RAT, LIVER, S-9, AROCLOR 1254) was “inactive; negative” and the mutagenic call (End Point: IN VITRO MICRONUCLEUS, Test System: AHH-1 CELLS, Metabolic Activation: NONE) was “inactive; negative”. For the same compound, the mutagenic call (End Point: IN VITRO MICRONUCLEUS, Test System: BOVINE LYMPHOCYTES, Metabolic Activation: NONE) was “active; positive”, the mutagenic call (End Point: IN VITRO MICRONUCLEUS, Test System: BOVINE LYMPHOCYTES, Metabolic Activation: S-9 MIX, AROCLOR 1254) was “active; positive” and the mutagenic call (End Point: IN VITRO MICRONUCLEUS, Test System: CHL/IU CELLS, Metabolic Activation: RAT, LIVER, S-9, PHENOBARBITAL AND 5,6-BENZOFLAVONE) was “active; positive”. For the same compound, the mutagenic call (End Point: IN VITRO MICRONUCLEUS, Test System: MCL-5 CELLS, Metabolic Activation: NONE) was “active; positive”, the mutagenic call (End Point: IN VITRO MICRONUCLEUS, Test System: V79 CELLS, Metabolic Activation: RAT, LIVER, S-9, AROCLOR 1254) was “inactive; negative” and the mutagenic call (End Point: IN VIVO CHROMOSOMAL ABERRATIONS, Test System: DUAL COLOR PAINTING OF CHROMOSOMES 8 AND 21 FROM PERIPHERAL LYMPHOCYTES, METAPHASE SPREADS, Species: HUMAN, Strain/Sex: MALE, FEMALE, Route: INHALATION (WORKPLACE), Method: FISH) was “active; positive”. The mutagenic call (End Point: IN VIVO CHROMOSOMAL ABERRATIONS, Test System: HUMAN PERIPHERAL LYMPHOCYTES, Species: HUMAN, Route: INHALATION (WORKPLACE), Method: FISH) was “breaks in chromosomes 1 and 9”, the mutagenic call (End Point: IN VIVO CHROMOSOMAL ABERRATIONS, Test System: LYMPHOCYTES, Species: HUMAN, Route: PROBABLY INHALATION, Method: FISH (INTERPHASE OR METAPHASE; CHROMOSOMES 7, 8, 9)) was “active; positive (structural and ploidy changes)” and the mutagenic call (End Point: IN VIVO CHROMOSOMAL ABERRATIONS, Test System: PERIPHERAL BLOOD LYMPHOCYTES, Species: HUMAN (COKE OVEN WORKERS), Route: INHALATION, Method: FISH) was “active; positive (monosomy and trisomy of chromosomes 8 and 21)”. The mutagenic call (End Point: IN VIVO CHROMOSOMAL ABERRATIONS, Test System: PERIPHERAL BLOOD LYMPHOCYTES, Species: HUMAN (PETROLEUM REFINERY WORKERS), Strain/Sex: MALE, Route: INDUSTRIAL EXPOSURE) was “active; positive”, the mutagenic call (End Point: IN VIVO CHROMOSOMAL ABERRATIONS, Test System: PERIPHERAL HUMAN LYMPHOCYTES, Species: HUMAN, Route: INDUSTRIAL EXPOSURE (INHALATION)) was “active; positive (ploidy)” and the mutagenic call (End Point: IN VIVO MICRONUCLEUS, Test System: BONE MARROW POLYCHROMATIC ERYTHROCYTES, Species: MOUSE, Strain/Sex: CD-1/MALE, Route: ORAL (GAVAGE)) was “active; positive”. For the same compound, the mutagenic call (End Point: IN VIVO MICRONUCLEUS, Test System: BONE MARROW, Species: MOUSE, Strain/Sex: B6C3F1/MALE, Route: GAVAGE) was “active; positive”, the mutagenic call (End Point: IN VIVO MICRONUCLEUS, Test System: SPLENOCYTES, Species: MOUSE, Strain/Sex: CD-1/MALE, Route: ORAL (GAVAGE)) was “active; positive” and the mutagenic call (End Point: In vivo micronucleus, Test System: Bone marrow polychromatic erythrocytes, Species: Mouse, Strain/Sex: CD-1/Male, Route: Inhalation) was “active; positive”. The mutagenic call (End Point: In vivo micronucleus, Test System: Peripheral blood normochromatic erythrocytes, Species: Mouse, Strain/Sex: B6.129-Cdkn2atm1Rdp (i.e. Haploinsufficient p16Ink4a/p19Arf)/Female, Route: Gavage) was “active; positive (deletions in the cdkn2a gene predispose rodents to cancer at multiple”, the mutagenic call (End Point: In vivo micronucleus, Test System: Peripheral blood normochromatic erythrocytes, Species: Mouse, Strain/Sex: B6.129-Cdkn2atm1Rdp (i.e. Haploinsufficient p16Ink4a/p19Arf)/Male, Route: Gavage) was “active; positive (deletions in the cdkn2a gene predispose rodents to cancer at multiple” and the mutagenic call (Test System: AMES SALMONELLA TYPHIMURIUM, Strain/Indicator: TA97, Metabolic Activation: HAMSTER LIVER S-9, AROCLOR 1254 (10 OR 30%), Method: PREINCUBATION) was “inactive; negative”. For the same compound, the mutagenic call (Test System: AMES SALMONELLA TYPHIMURIUM, Strain/Indicator: TA97, Metabolic Activation: NONE, Method: PREINCUBATION) was “inactive; negative”, the mutagenic call (Test System: AMES SALMONELLA TYPHIMURIUM, Strain/Indicator: TA97, Metabolic Activation: NONE, Method: STANDARD PLATE) was “inactive; negative” and the mutagenic call (Test System: AMES SALMONELLA TYPHIMURIUM, Strain/Indicator: TA97, Metabolic Activation: RAT LIVER S-9, AROCLOR 1254 (10 OR 30%), Method: PREINCUBATION) was “inactive; negative”. The mutagenic call (Test System: AMES SALMONELLA TYPHIMURIUM, Strain/Indicator: TA97, Metabolic Activation: RAT, LIVER, S-9, AROCLOR 1254, Method: STANDARD PLATE) was “inactive; negative”, the mutagenic call (Test System: AMES SALMONELLA TYPHIMURIUM, Strain/Indicator: TA97, Metabolic Activation: S-9, Method: STANDARD PLATE) was “inactive; negative” and the mutagenic call (Test System: AMES SALMONELLA TYPHIMURIUM, Strain/Indicator: TA98, Metabolic Activation: HAMSTER LIVER S-9, AROCLOR 1254 (10 OR 30%), Method: PREINCUBATION) was “inactive; negative”. The mutagenic call (Test System: AMES SALMONELLA TYPHIMURIUM, Strain/Indicator: TA98, Metabolic Activation: NONE, Method: PREINCUBATION) was “inactive; negative”, the mutagenic call (Test System: AMES SALMONELLA TYPHIMURIUM, Strain/Indicator: TA98, Metabolic Activation: RAT LIVER S-9, AROCLOR 1254 (10 OR 30%), Method: PREINCUBATION) was “inactive; negative” and the mutagenic call (Test System: AMES SALMONELLA TYPHIMURIUM, Strain/Indicator: TA98, Metabolic Activation: RAT, LIVER, S-9, AROCLOR 1254, Method: DESICCATOR) was “inactive; negative”. For the same compound, the mutagenic call (Test System: AMES SALMONELLA TYPHIMURIUM, Strain/Indicator: TA98, Metabolic Activation: RAT, LIVER, S-9, AROCLOR 1254, Method: STANDARD PLATE) was “inactive; negative”, the mutagenic call (Test System: AMES SALMONELLA TYPHIMURIUM, Strain/Indicator: TA98, Metabolic Activation: RAT, LIVER, S-9, AROCLOR, Method: STANDARD PLATE) was “inactive; negative” and the mutagenic call (Test System: AMES SALMONELLA TYPHIMURIUM, Strain/Indicator: TA98, Metabolic Activation: RAT, LIVER, S-9, ETHANOL, Method: STANDARD PLATE) was “inactive; negative”. For the same compound, the mutagenic call (Test System: AMES SALMONELLA TYPHIMURIUM, Strain/Indicator: TA98, Metabolic Activation: RAT, LIVER, S-9, PHENOBARBITAL, Method: STANDARD PLATE) was “inactive; negative”, the mutagenic call (Test System: AMES SALMONELLA TYPHIMURIUM, Strain/Indicator: TA98, Metabolic Activation: RAT, LIVER, S-9, PYRAZOLE, Method: STANDARD PLATE) was “inactive; negative” and the mutagenic call (Test System: AMES SALMONELLA TYPHIMURIUM, Strain/Indicator: TA98, Metabolic Activation: S-9, Method: STANDARD PLATE) was “inactive; negative”. For the same compound, the mutagenic call (Test System: AMES SALMONELLA TYPHIMURIUM, Strain/Indicator: TA100, Metabolic Activation: HAMSTER LIVER S-9, AROCLOR 1254 (10 OR 30%), Method: PREINCUBATION) was “inactive; negative”, the mutagenic call (Test System: AMES SALMONELLA TYPHIMURIUM, Strain/Indicator: TA100, Metabolic Activation: NONE, Method: DESICCATOR) was “inactive; negative” and the mutagenic call (Test System: AMES SALMONELLA TYPHIMURIUM, Strain/Indicator: TA100, Metabolic Activation: NONE, Method: PREINCUBATION) was “inactive; negative”. For the same compound, the mutagenic call (Test System: AMES SALMONELLA TYPHIMURIUM, Strain/Indicator: TA100, Metabolic Activation: RAT LIVER S-9, AROCLOR 1254 (10 OR 30%), Method: PREINCUBATION) was “inactive; negative”, the mutagenic call (Test System: AMES SALMONELLA TYPHIMURIUM, Strain/Indicator: TA100, Metabolic Activation: RAT, LIVER, S-9, AROCLOR 1254, Method: DESICCATOR) was “inactive; negative” and the mutagenic call (Test System: AMES SALMONELLA TYPHIMURIUM, Strain/Indicator: TA100, Metabolic Activation: RAT, LIVER, S-9, AROCLOR 1254, Method: STANDARD PLATE) was “inactive; negative”. For the same compound, the mutagenic call (Test System: AMES SALMONELLA TYPHIMURIUM, Strain/Indicator: TA100, Metabolic Activation: RAT, LIVER, S-9, AROCLOR, Method: STANDARD PLATE) was “inactive; negative” and the mutagenic call (Test System: AMES SALMONELLA TYPHIMURIUM, Strain/Indicator: TA100, Metabolic Activation: RAT, LIVER, S-9, ETHANOL, Method: STANDARD PLATE) was “inactive; negative”.
